This passage reports Emax and EC50 results from US20260176320A1, “MODULATORS OF G-PROTEIN COUPLED RECEPTORS” (priority 2018, published 2026).

In general, Emax refers to the size of the effect at its maximum, as opposed to the concentration needed.

One assay deals with T1, GIP-R (Homo sapiens, UniProt P48546).
T1 sequence (P48546 22-466): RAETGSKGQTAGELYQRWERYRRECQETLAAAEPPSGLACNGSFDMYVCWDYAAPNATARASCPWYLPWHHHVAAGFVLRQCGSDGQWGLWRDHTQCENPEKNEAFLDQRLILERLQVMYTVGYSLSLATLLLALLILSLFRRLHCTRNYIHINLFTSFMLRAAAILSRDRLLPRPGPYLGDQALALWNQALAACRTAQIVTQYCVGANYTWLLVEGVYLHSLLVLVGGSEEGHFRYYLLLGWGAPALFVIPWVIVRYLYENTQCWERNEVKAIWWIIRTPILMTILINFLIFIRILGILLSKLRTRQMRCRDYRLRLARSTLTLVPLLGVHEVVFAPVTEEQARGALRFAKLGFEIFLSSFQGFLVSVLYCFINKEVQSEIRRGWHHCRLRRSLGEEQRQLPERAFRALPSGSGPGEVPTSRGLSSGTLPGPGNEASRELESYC
In words: HitHunter cAMP assay (GIP-R). In kind it is cell-based. The note with it: cAMP; for Emax: read-out: (Emax) GIP-R. In short, it runs like this:
(§1)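 Cells were resuspended in HBSS plus HEPES, IBMX (625 μM) and BSA, then dispensed with antibody at 10,000 per well. Agonists followed as 22-point twofold series, 30 min at room temperature. Antibody reagent and detection steps ran 1 h and overnight in the dark before luminescence.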

The next assay concerns the target GLP-1R (Homo sapiens, UniProt P43220). In words: HitHunter cAMP assay (GLP-1R). Format: cell-based. The note with it: cAMP; for Emax: read-out: (Emax) GLP-1R. In short, it runs like this: as §1
In general terms: Cyclic AMP is a second messenger, typically raised through Gs and lowered through Gi signalling.

Where [1] appears, read: Table 3A, read-out: EC50 GIP-R/nM.
Where [2] appears, read: Table 3A, read-out: EC50 GLP-1R/nM.
Where [3] appears, read: Table 3, read-out: EC50 GIP-R/nM.
Where [4] appears, read: Table 3, read-out: EC50 GLP-1R/nM.

Where two headings read alike, the source gives them in different places. Numbered stars: 1 amine (or outer) side, 2 acyl side, 3 side chain; on linkers, the order of the positions; unused ones are H or OH. Side chains are listed from the residue outwards. Peptide text beside a SMILES is read from it. * marks the point of attachment. γGlu = O=C(O)[C@H](CCC(=O)[*:2])N[*:1]; X2 = O=C(CSCC(=O)*)NCCN1C(=O)CSC1=O; Palmitoyl = CCCCCCCCCCCCCCCC(=O)* Where only a bound is given, the exact number is not on record here.

GLP-1R, sequence (P43220 24-463): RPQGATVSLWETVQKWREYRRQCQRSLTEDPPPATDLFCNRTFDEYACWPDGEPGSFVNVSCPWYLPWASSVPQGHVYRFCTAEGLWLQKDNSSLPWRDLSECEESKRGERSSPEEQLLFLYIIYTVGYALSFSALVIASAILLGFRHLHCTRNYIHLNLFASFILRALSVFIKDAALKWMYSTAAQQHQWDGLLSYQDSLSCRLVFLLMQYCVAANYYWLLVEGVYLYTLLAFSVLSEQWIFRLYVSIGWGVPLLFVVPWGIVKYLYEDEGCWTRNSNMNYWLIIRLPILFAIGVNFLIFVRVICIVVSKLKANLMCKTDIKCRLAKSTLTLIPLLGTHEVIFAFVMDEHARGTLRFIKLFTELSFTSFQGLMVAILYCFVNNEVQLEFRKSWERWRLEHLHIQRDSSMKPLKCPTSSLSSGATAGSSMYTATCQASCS

Regarding `CCCCCCCCCCCCCCCC(=O)N[C@@H](CCC(=O)NCCCC[C@H](NC(=O)[C@H](CO)NC(=O)[C@@H]1CCCN1C(=O)[C@@H]1CCCN1C(=O)[C@@H]1CCCN1C(=O)[C@H](C)NC(=O)CNC(=O)[C@H](CO)NC(=O)[C@H](CO)NC(=O)[C@@H]1CCCN1C(=O)CNC(=O)CNC(=O)[C@H](C)NC(=O)[C@H](CC(C)C)NC(=O)[C@H](CC(C)C)NC(=O)[C@H](Cc1c[nH]c2ccccc12)NC(=O)[C@H](CC(N)=O)NC(=O)[C@@H](NC(=O)[C@H](Cc1ccccc1)NC(=O)[C@H](CCC(=O)O)NC(=O)C(C)(C)NC(=O)[C@H](C)NC(=O)[C@H](C)NC(=O)[C@H](CCC(N)=O)NC(=O)[C@H](CCCCN)NC(=O)[C@H](CC(=O)O)NC(=O)[C@H](CC(C)C)NC(=O)[C@H](Cc1ccc(O)cc1)NC(=O)[C@@H](NC(=O)[C@H](CO)NC(=O)[C@H](Cc1ccc(O)cc1)NC(=O)[C@H](CC(=O)O)NC(=O)[C@H](CO)NC(=O)[C@@H](NC(=O)[C@H](Cc1ccccc1)NC(=O)[C@@H](NC(=O)CNC(=O)[C@H](CCC(=O)O)NC(=O)C(C)(C)C(=O)NCCN1CCOCC1=O)[C@@H](C)O)[C@@H](C)O)[C@@H](C)CC)C(C)C)C(N)=O)C(=O)O` [Compound 257], the Emax at GIP-R (Table 3A) amounted to 40%. The EC50 was 10 to 100 nM at GIP-R (setting [1]) and less than 0.1 nM at GLP-1R (setting [2]).

In the case of `CCCCCCCCCCCCCCCC(=O)N[C@@H](CCC(=O)NCCCC[C@H](NC(=O)[C@H](CO)NC(=O)[C@@H]1CCCN1C(=O)[C@@H]1CCCN1C(=O)[C@@H]1CCCN1C(=O)[C@H](C)NC(=O)CNC(=O)[C@H](CO)NC(=O)[C@H](CO)NC(=O)[C@@H]1CCCN1C(=O)CNC(=O)CNC(=O)[C@H](C)NC(=O)[C@H](CC(C)C)NC(=O)[C@H](CC(C)C)NC(=O)[C@H](Cc1c[nH]c2ccccc12)NC(=O)[C@H](CC(N)=O)NC(=O)[C@@H](NC(=O)[C@H](Cc1ccccc1)NC(=O)[C@H](CCC(=O)O)NC(=O)C(C)(C)NC(=O)[C@H](C)NC(=O)[C@H](C)NC(=O)[C@H](CCC(N)=O)NC(=O)[C@H](CCCCN)NC(=O)[C@H](CC(=O)O)NC(=O)[C@H](CC(C)C)NC(=O)[C@H](Cc1ccc(O)cc1)NC(=O)[C@@H](NC(=O)[C@H](CO)NC(=O)[C@H](Cc1ccc(O)cc1)NC(=O)[C@H](CC(=O)O)NC(=O)[C@H](CO)NC(=O)[C@@H](NC(=O)[C@H](Cc1ccccc1)NC(=O)[C@@H](NC(=O)CNC(=O)[C@H](CCC(=O)O)NC(=O)CSCC(=O)NCCN1C[C@H](C)CC1=O)[C@@H](C)O)[C@@H](C)O)[C@@H](C)CC)C(C)C)C(N)=O)C(=O)O` (single isomer, unassigned) [Compound 28], the Emax on GIP-R (Table 3) turned out to be 57%; on GIP-R (Table 3A), 57%; on GLP-1R (Table 3), 101%; on GLP-1R (Table 3A), 101%.

Take `CC[C@H](C)[C@H](NC(=O)[C@H](CO)NC(=O)[C@H](Cc1ccc(O)cc1)NC(=O)[C@H](CC(=O)O)NC(=O)[C@H](CO)NC(=O)[C@@H](NC(=O)[C@H](Cc1ccccc1)NC(=O)[C@@H](NC(=O)CNC(=O)[C@H](CCC(=O)O)NC(=O)C(C)(C)C(=O)NCCN1C(=O)c2ccc(C)cc2C1=O)[C@@H](C)O)[C@@H](C)O)C(=O)N[C@@H](Cc1ccc(O)cc1)C(=O)N[C@@H](CC(C)C)C(=O)N[C@@H](CC(=O)O)C(=O)N[C@@H](CCCCN)C(=O)N[C@@H](CCC(N)=O)C(=O)N[C@@H](C)C(=O)N[C@@H](C)C(=O)NC(C)(C)C(=O)N[C@@H](CCC(=O)O)C(=O)N[C@@H](Cc1ccccc1)C(=O)N[C@H](C(=O)N[C@@H](CC(N)=O)C(=O)N[C@@H](Cc1c[nH]c2ccccc12)C(=O)N[C@@H](CC(C)C)C(=O)N[C@@H](CC(C)C)C(=O)N[C@@H](C)C(=O)NCC(=O)NCC(=O)N1CCC[C@H]1C(=O)N[C@@H](CO)C(=O)N[C@@H](CO)C(=O)NCC(=O)N[C@@H](C)C(=O)N1CCC[C@H]1C(=O)N1CCC[C@H]1C(=O)N1CCC[C@H]1C(=O)N[C@@H](CO)C(=O)N[C@@H](CCCCN)C(N)=O)C(C)C` [Compound 127]: the EC50 on GIP-R (EC50 GIP-R/nM, Table 3) lay in the range of 1 to 10 nM; at GIP-R (EC50 GIP-R/nM, Table 3A), 1 to 10 nM; on GLP-1R (EC50 GLP-1R/nM, Table 3), 1 to 10 nM; at GLP-1R (EC50 GLP-1R/nM, Table 3A), 1 to 10 nM. For the same molecule, the Emax was 98 to 102% on GIP-R (Table 3), 98 to 102% at GIP-R (Table 3A), 95 to 107% at GLP-1R (Table 3) and 95 to 107% at GLP-1R (Table 3A).

In the case of `CCCCCCCCCCCCCCCC(=O)N[C@@H](CCC(=O)NCCCC[C@H](NC(=O)[C@H](CO)NC(=O)[C@@H]1CCCN1C(=O)[C@@H]1CCCN1C(=O)[C@@H]1CCCN1C(=O)[C@H](C)NC(=O)CNC(=O)[C@H](CO)NC(=O)[C@H](CO)NC(=O)[C@@H]1CCCN1C(=O)CNC(=O)[C@H](CCCNC(=N)N)NC(=O)[C@H](CCC(N)=O)NC(=O)[C@H](C)NC(=O)[C@H](CC(C)C)NC(=O)[C@H](CC(C)C)NC(=O)[C@H](Cc1c[nH]c2ccccc12)NC(=O)[C@H](CC(N)=O)NC(=O)[C@@H](NC(=O)[C@H](Cc1ccccc1)NC(=O)[C@H](CC(=O)O)NC(=O)[C@H](CCC(N)=O)NC(=O)[C@H](CCC(N)=O)NC(=O)[C@H](CCCNC(=N)N)NC(=O)[C@@H](NC(=O)[C@H](CCCCN)NC(=O)[C@H](CC(=O)O)NC(=O)[C@H](CCSC)NC(=O)[C@H](C)NC(=O)[C@@H](NC(=O)[C@H](CO)NC(=O)[C@H](Cc1ccc(O)cc1)NC(=O)[C@H](CC(=O)O)NC(=O)[C@H](CO)NC(=O)[C@@H](NC(=O)[C@H](Cc1ccccc1)NC(=O)[C@@H](NC(=O)CNC(=O)[C@H](CCC(=O)O)NC(=O)CSCC(=O)NCCN1C(=O)CSC1=O)[C@@H](C)O)[C@@H](C)CC)[C@@H](C)CC)[C@@H](C)CC)C(C)C)C(N)=O)C(=O)O` [Compound 76] (X2-EGTFISDYSIAMDKIRQQDFVNWLLAQRGPSSGAPPPSK([γGlu-Palmitoyl])-NH2), the Emax at GIP-R (Table 3) was 89%; on GIP-R (Table 3A), 89%; at GLP-1R (Table 3), 95%; on GLP-1R (Table 3A), 95%. For the same molecule, the EC50 on GIP-R (setting [3]) was in the range of 0.1 to 1 nM; at GIP-R (setting [1]), 0.1 to 1 nM; at GLP-1R (setting [4]), 1 to 10 nM; on GLP-1R (setting [2]), 1 to 10 nM.

`CCCCCCCCCCCCCCCC(=O)N[C@@H](CCC(=O)NCCCC[C@H](NC(=O)[C@H](CO)NC(=O)[C@@H]1CCCN1C(=O)[C@@H]1CCCN1C(=O)[C@@H]1CCCN1C(=O)[C@H](C)NC(=O)CNC(=O)[C@H](CO)NC(=O)[C@H](CO)NC(=O)[C@@H]1CCCN1C(=O)CNC(=O)CNC(=O)[C@H](C)NC(=O)[C@H](CC(C)C)NC(=O)[C@H](CC(C)C)NC(=O)[C@H](Cc1c[nH]c2ccccc12)NC(=O)[C@H](CC(N)=O)NC(=O)[C@@H](NC(=O)[C@H](Cc1ccccc1)NC(=O)[C@H](CCC(=O)O)NC(=O)C(C)(C)NC(=O)[C@H](C)NC(=O)[C@H](C)NC(=O)[C@H](CCC(N)=O)NC(=O)[C@H](CCCCN)NC(=O)[C@H](CC(=O)O)NC(=O)[C@H](CC(C)C)NC(=O)[C@H](Cc1ccc(O)cc1)NC(=O)[C@@H](NC(=O)[C@H](CO)NC(=O)[C@H](Cc1ccc(O)cc1)NC(=O)[C@H](CC(=O)O)NC(=O)[C@H](CO)NC(=O)[C@@H](NC(=O)[C@H](Cc1ccccc1)NC(=O)[C@@H](NC(=O)CNC(=O)[C@H](CCC(=O)O)NC(=O)CSCC(=O)NCCN1C(=O)CC(C)(C)CC1=O)[C@@H](C)O)[C@@H](C)O)[C@@H](C)CC)C(C)C)C(N)=O)C(=O)O` [Compound 82]: the EC50 at GIP-R (EC50 GIP-R/nM, Table 3) was 1 to 10 nM; on GIP-R (EC50 GIP-R/nM, Table 3A), 1 to 10 nM; on GLP-1R (EC50 GLP-1R/nM, Table 3) it was 1 to 10 nM; on GLP-1R (EC50 GLP-1R/nM, Table 3A), 1 to 10 nM. Further, the Emax on GIP-R (Table 3) worked out at 82%; on GIP-R (Table 3A), 82%; at GLP-1R (Table 3) it was 95%; on GLP-1R (Table 3A) it was 95%.

`CCCCCCCCCCCCCCCC(=O)N[C@@H](CCC(=O)NCCCC[C@H](NC(=O)[C@H](CO)NC(=O)[C@@H]1CCCN1C(=O)[C@@H]1CCCN1C(=O)[C@@H]1CCCN1C(=O)[C@H](C)NC(=O)CNC(=O)[C@H](CO)NC(=O)[C@H](CO)NC(=O)[C@@H]1CCCN1C(=O)CNC(=O)CNC(=O)[C@H](C)NC(=O)[C@H](CC(C)C)NC(=O)[C@H](CC(C)C)NC(=O)[C@H](Cc1c[nH]c2ccccc12)NC(=O)[C@H](CC(N)=O)NC(=O)[C@@H](NC(=O)[C@H](Cc1ccccc1)NC(=O)[C@H](CCC(=O)O)NC(=O)C(C)(C)NC(=O)[C@H](C)NC(=O)[C@H](C)NC(=O)[C@H](CCC(N)=O)NC(=O)[C@H](CCCCN)NC(=O)[C@H](CC(=O)O)NC(=O)[C@H](CC(C)C)NC(=O)[C@H](Cc1ccc(O)cc1)NC(=O)[C@@H](NC(=O)[C@H](CO)NC(=O)[C@H](Cc1ccc(O)cc1)NC(=O)[C@H](CC(=O)O)NC(=O)[C@H](CO)NC(=O)[C@@H](NC(=O)[C@H](Cc1ccccc1)NC(=O)[C@@H](NC(=O)CNC(=O)[C@H](CCC(=O)O)NC(=O)CSCC(=O)NCCN1C(=O)NC(C)(C)C1=O)[C@@H](C)O)[C@@H](C)O)[C@@H](C)CC)C(C)C)C(N)=O)C(=O)O` [Compound 87]: the Emax was 62% at GIP-R (Table 3), 62% on GIP-R (Table 3A), 89% on GLP-1R (Table 3) and 89% at GLP-1R (Table 3A). The EC50 on GIP-R (setting [3]), on GIP-R (setting [1]), on GLP-1R (setting [4]) and on GLP-1R (setting [2]) was 1 to 10 nM each time.
